Laboratory results taken from PubChem BioAssay (NCI).
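GI50 marks 50% less growth. TGI marks complete inhibition of growth.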

Tests used:
Assay in all cases: NCI anticancer screen, dose series, 384-well format
SK-MEL-5 melanoma = tested on: SK-MEL-5 melanoma
SF-295 CNS = tested on: SF-295 CNS
SR leukemia = tested on: SR leukemia
DU-145 prostate = tested on: DU-145 prostate
HCC-2998 colon = tested on: HCC-2998 colon
A498 renal = tested on: A498 renal
SF-539 CNS = tested on: SF-539 CNS
A549 NSCLC = tested on: A549 NSCLC
OVCAR-5 ovarian = tested on: OVCAR-5 ovarian
NCI/ADR-RES ovarian = tested on: NCI/ADR-RES ovarian
786-0 renal = tested on: 786-0 renal
RPMI-8226 leukemia = tested on: RPMI-8226 leukemia
OVCAR-4 ovarian = tested on: OVCAR-4 ovarian
MALME-3M melanoma = tested on: MALME-3M melanoma
NCI-H23 lung = tested on: NCI-H23 lung
PC-3 prostate = tested on: PC-3 prostate
MOLT-4 leukemia = tested on: MOLT-4 leukemia
U251 glioblastoma = tested on: U251 glioblastoma
BT-549 breast = tested on: BT-549 breast
SNB-19 CNS = tested on: SNB-19 CNS
MDA-MB-468 breast = tested on: MDA-MB-468 breast
SF-268 CNS = tested on: SF-268 CNS
RXF 393 renal = tested on: RXF 393 renal
UO-31 renal = tested on: UO-31 renal
UACC-62 melanoma = tested on: UACC-62 melanoma
COLO 205 colon = tested on: COLO 205 colon
KM12 colon = tested on: KM12 colon
NCI-H522 lung = tested on: NCI-H522 lung
OVCAR-3 ovarian = tested on: OVCAR-3 ovarian
UACC-257 melanoma = tested on: UACC-257 melanoma
NCI-H460 NSCLC = tested on: NCI-H460 NSCLC
HT29 colon = tested on: HT29 colon
NCI-H322M lung = tested on: NCI-H322M lung
HOP-62 NSCLC = tested on: HOP-62 NSCLC
SK-MEL-28 melanoma = tested on: SK-MEL-28 melanoma
TK-10 renal = tested on: TK-10 renal
MDA-MB-231 breast = tested on: MDA-MB-231 breast
CAKI-1 renal = tested on: CAKI-1 renal
SK-MEL-2 melanoma = tested on: SK-MEL-2 melanoma
HL-60(TB) leukemia = tested on: HL-60(TB) leukemia
CCRF-CEM leukemia = tested on: CCRF-CEM leukemia
OVCAR-8 ovarian = tested on: OVCAR-8 ovarian
SN12C renal = tested on: SN12C renal
HCT-116 colon = tested on: HCT-116 colon
NCI-H226 lung = tested on: NCI-H226 lung
LOX IMVI melanoma = tested on: LOX IMVI melanoma
ACHN renal = tested on: ACHN renal
MDA-MB-435 melanoma = tested on: MDA-MB-435 melanoma
SK-OV-3 ovarian = tested on: SK-OV-3 ovarian
MCF7 breast = tested on: MCF7 breast
IGROV1 ovarian = tested on: IGROV1 ovarian
M14 melanoma = tested on: M14 melanoma
SW-620 colon = tested on: SW-620 colon
K-562 leukemia = tested on: K-562 leukemia
T-47D breast = tested on: T-47D breast
HOP-92 NSCLC = tested on: HOP-92 NSCLC
HCT-15 colon = tested on: HCT-15 colon

COc1ccc(-c2c(-c3ccc(C#N)c(F)c3)nc(N3CCC(N)CC3)n(C)c2=O)cc1F
GI50 (SK-MEL-5 melanoma): 14.4 µM | TGI (SK-MEL-5 melanoma): 27.5 µM | GI50 (SF-295 CNS): 16.8 µM | TGI (SF-295 CNS): 30.4 µM | GI50 (SR leukemia): 1.69 µM | TGI (SR leukemia): 3.06 µM | GI50 (DU-145 prostate): 15.1 µM | TGI (DU-145 prostate): 28.9 µM | GI50 (HCC-2998 colon): 11 µM | TGI (HCC-2998 colon): 23 µM | GI50 (A498 renal): 2.29 µM | TGI (A498 renal): 7.42 µM | GI50 (SF-539 CNS): 13.8 µM | TGI (SF-539 CNS): 26.8 µM | GI50 (A549 NSCLC): 16.7 µM | TGI (A549 NSCLC): 30.5 µM | GI50 (OVCAR-5 ovarian): 14.7 µM | TGI (OVCAR-5 ovarian): 28.2 µM | GI50 (NCI/ADR-RES ovarian): 16.5 µM | TGI (NCI/ADR-RES ovarian): 30.3 µM | GI50 ([…]-0 renal): 10.6 µM | TGI (786-0 renal): 22.5 µM | GI50 (RPMI-8226 leukemia): 7.53 µM | TGI (RPMI-8226 leukemia): 19.6 µM | GI50 (OVCAR-4 ovarian): 14.3 µM | TGI (OVCAR-4 ovarian): 27.6 µM | GI50 (MALME-3M melanoma): 2.46 µM | TGI (MALME-3M melanoma): 6.58 µM | GI50 (NCI-H23 lung): 11.2 µM | TGI (NCI-H23 lung): 28.6 µM | GI50 (PC-3 prostate): 13.8 µM | TGI (PC-3 prostate): 26.8 µM | GI50 (MOLT-4 leukemia): 1.78 µM | TGI (MOLT-4 leukemia): 3.17 µM | GI50 (U251 glioblastoma): 12.2 µM | TGI (U251 glioblastoma): 24.7 µM | GI50 (BT-549 breast): 11.6 µM | TGI (BT-549 breast): 23.9 µM | GI50 (SNB-19 CNS): 18 µM | TGI (SNB-19 CNS): 32.1 µM | GI50 (MDA-MB-468 breast): 9.92 µM | TGI (MDA-MB-468 breast): 21.5 µM | GI50 (SF-268 CNS): 14.1 µM | TGI (SF-268 CNS): 27.1 µM | GI50 (RXF 393 renal): 2.69 µM | TGI (RXF 393 renal): 9.41 µM | GI50 (UO-31 renal): 13.3 µM | TGI (UO-31 renal): 26.1 µM | GI50 (UACC-62 melanoma): 2.18 µM | TGI (UACC-62 melanoma): 5.43 µM | GI50 (COLO 205 colon): 12 µM | TGI (COLO 205 colon): 24.3 µM | GI50 (KM12 colon): 13.1 µM | TGI (KM12 colon): 25.9 µM | GI50 (NCI-H522 lung): 11.7 µM | TGI (NCI-H522 lung): 24 µM | GI50 (OVCAR-3 ovarian): 13.2 µM | TGI (OVCAR-3 ovarian): 26 µM | GI50 (UACC-257 melanoma): 1.71 µM | TGI (UACC-257 melanoma): 3.16 µM | GI50 (NCI-H460 NSCLC): 3.41 µM | TGI (NCI-H460 NSCLC): 10.9 µM | GI50 (HT29 colon): 9.51 µM | TGI (HT29 colon): 21.6 µM | GI50 (NCI-H322M lung): 14.3 µM | TGI (NCI-H322M lung): 28.3 µM | GI50 (HOP-62 NSCLC): 15.3 µM | TGI (HOP-62 NSCLC): 28.7 µM | GI50 (SK-MEL-28 melanoma): 10.7 µM | TGI (SK-MEL-28 melanoma): 22.6 µM | GI50 (TK-10 renal): 14.3 µM | TGI (TK-10 renal): 27.5 µM | GI50 (MDA-MB-231 breast): 13.2 µM | TGI (MDA-MB-231 breast): 25.9 µM | GI50 (CAKI-1 renal): 8.69 µM | TGI (CAKI-1 renal): 20.8 µM | GI50 (SK-MEL-2 melanoma): 5.12 µM | TGI (SK-MEL-2 melanoma): 17.8 µM | GI50 (HL-60(TB) leukemia): 3.89 µM | TGI (HL-60(TB) leukemia): 15.1 µM | GI50 (CCRF-CEM leukemia): 13 µM | TGI (CCRF-CEM leukemia): 25.8 µM | GI50 (OVCAR-8 ovarian): 14.5 µM | TGI (OVCAR-8 ovarian): 27.6 µM | GI50 (SN12C renal): 12.9 µM | TGI (SN12C renal): 25.6 µM | GI50 (HCT-116 colon): 6.86 µM | TGI (HCT-116 colon): 19.8 µM | GI50 (NCI-H226 lung): 1.75 µM | TGI (NCI-H226 lung): 3.27 µM | GI50 (LOX IMVI melanoma): 19.2 µM | TGI (LOX IMVI melanoma): 33.3 µM | GI50 (ACHN renal): 12.4 µM | TGI (ACHN renal): 24.9 µM | GI50 (MDA-MB-435 melanoma): 13.5 µM | TGI (MDA-MB-435 melanoma): 26.4 µM | GI50 (SK-OV-3 ovarian): 12 µM | TGI (SK-OV-3 ovarian): 24.4 µM | GI50 (MCF7 breast): 3.06 µM | TGI (MCF7 breast): 9 µM | GI50 (IGROV1 ovarian): 13.9 µM | TGI (IGROV1 ovarian): 26.9 µM | GI50 (M14 melanoma): 4.89 µM | TGI (M14 melanoma): 16.6 µM | GI50 (SW-620 colon): 15.3 µM | TGI (SW-620 colon): 28.7 µM | GI50 (K-562 leukemia): 11.8 µM | TGI (K-562 leukemia): 24.1 µM | GI50 (T-47D breast): 10.4 µM | TGI (T-47D breast): 22.1 µM | GI50 (HOP-92 NSCLC): 6.55 µM | TGI (HOP-92 NSCLC): 19.1 µM | GI50 (HCT-15 colon): 15.7 µM | TGI (HCT-15 colon): 29.3 µM
